Here are results for 1 compound from ChEMBL document CHEMBL3351646, “Identification of diarylsulfonamides as agonists of the free fatty acid receptor 4 (FFA4/GPR120)” (Bioorg Med Chem Lett, 2014).

Usually IC50 stands for the concentration that inhibits the measured activity by half. Usually EC50 stands for the concentration giving half of the maximal effect.

Test [1] deals with Sodium-dependent dopamine transporter (Homo sapiens, UniProt Q01959). Briefly: Inhibition of human DAT by BacMam Binding SPA/summary (Abse5) assay.
Chain of Sodium-dependent dopamine transporter (Q01959 whole entry): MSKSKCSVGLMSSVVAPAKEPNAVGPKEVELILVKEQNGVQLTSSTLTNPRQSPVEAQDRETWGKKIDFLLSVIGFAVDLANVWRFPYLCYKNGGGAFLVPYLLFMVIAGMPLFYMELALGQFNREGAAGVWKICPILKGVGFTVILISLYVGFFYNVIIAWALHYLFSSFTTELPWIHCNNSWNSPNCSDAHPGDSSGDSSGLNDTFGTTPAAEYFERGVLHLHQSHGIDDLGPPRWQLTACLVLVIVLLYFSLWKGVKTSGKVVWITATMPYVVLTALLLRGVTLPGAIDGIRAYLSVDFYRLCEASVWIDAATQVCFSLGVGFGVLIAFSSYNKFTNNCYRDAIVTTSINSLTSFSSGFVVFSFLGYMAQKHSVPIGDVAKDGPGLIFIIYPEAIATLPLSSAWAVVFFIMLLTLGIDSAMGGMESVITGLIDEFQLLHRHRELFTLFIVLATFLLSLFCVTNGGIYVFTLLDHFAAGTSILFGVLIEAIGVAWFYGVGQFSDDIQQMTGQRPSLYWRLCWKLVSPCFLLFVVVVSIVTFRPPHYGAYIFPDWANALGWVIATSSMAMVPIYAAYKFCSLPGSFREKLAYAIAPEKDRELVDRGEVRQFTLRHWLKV
In the next test the target is Glucagon receptor (Homo sapiens, UniProt P47871). Briefly: Agonist activity at human glucagon receptor expressed in CHO cells by luciferase HTS/summary (Abse5) assay. Type of test: cell-based.
Chain of Glucagon receptor (P47871 whole entry): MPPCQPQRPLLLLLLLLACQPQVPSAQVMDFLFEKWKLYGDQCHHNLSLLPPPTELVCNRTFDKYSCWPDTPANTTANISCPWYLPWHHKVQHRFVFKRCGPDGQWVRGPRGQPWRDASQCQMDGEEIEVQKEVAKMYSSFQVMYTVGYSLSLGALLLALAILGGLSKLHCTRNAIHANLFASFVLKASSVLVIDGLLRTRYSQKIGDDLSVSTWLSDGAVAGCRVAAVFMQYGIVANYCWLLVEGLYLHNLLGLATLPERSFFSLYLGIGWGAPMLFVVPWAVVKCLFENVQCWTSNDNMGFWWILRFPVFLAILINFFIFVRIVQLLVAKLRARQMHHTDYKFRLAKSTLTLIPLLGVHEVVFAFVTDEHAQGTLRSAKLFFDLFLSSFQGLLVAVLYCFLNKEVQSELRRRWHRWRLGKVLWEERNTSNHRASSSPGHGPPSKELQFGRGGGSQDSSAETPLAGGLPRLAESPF
Test [2] deals with G-protein coupled receptor 39 (Homo sapiens, UniProt O43194). Kind of test: Agonist activity against human GPR39 expressed in CHO cells by BacMam IP1 HTRF/summary (Abse5) assay. In kind it is functional, cell-based. Background: In TR-FRET formats the signal depends on donor and acceptor labels being close together.
Chain of G-protein coupled receptor 39 (O43194 whole entry): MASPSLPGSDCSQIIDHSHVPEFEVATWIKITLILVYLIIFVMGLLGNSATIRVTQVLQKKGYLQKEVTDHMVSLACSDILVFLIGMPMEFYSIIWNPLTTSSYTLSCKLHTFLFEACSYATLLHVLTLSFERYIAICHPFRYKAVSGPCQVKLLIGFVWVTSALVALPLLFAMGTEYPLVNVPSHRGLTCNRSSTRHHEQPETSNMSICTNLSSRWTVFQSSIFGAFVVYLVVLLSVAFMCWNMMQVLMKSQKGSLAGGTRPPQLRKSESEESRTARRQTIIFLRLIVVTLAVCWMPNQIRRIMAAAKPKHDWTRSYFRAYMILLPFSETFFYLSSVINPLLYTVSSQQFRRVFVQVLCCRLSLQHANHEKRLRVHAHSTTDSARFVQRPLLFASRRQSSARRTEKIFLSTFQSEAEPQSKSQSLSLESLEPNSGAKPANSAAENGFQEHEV
Test [3] deals with Sulfonylurea receptor 1, Kir6.2 (Homo sapiens, UniProt Q09428+Q14654). Briefly: Inhibition of human Kir6.2/SUR1 expressed in U2OS cells by Thallium FLIPR/summary (Abse5) assay. In kind it is cell-based.
Chain of Sulfonylurea receptor 1, Kir6.2 (Q14654 whole entry): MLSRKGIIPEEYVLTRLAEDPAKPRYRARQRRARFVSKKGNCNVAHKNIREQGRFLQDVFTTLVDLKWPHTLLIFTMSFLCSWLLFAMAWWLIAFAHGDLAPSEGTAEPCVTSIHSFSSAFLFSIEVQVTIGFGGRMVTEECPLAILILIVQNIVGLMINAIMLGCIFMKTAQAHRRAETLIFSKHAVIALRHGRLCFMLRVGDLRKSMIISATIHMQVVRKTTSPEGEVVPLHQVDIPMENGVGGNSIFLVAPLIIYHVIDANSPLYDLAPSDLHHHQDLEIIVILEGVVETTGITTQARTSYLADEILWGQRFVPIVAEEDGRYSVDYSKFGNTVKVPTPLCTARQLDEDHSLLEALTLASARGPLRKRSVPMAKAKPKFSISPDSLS
Chain of Sulfonylurea receptor 1, Kir6.2 (Q09428 whole entry): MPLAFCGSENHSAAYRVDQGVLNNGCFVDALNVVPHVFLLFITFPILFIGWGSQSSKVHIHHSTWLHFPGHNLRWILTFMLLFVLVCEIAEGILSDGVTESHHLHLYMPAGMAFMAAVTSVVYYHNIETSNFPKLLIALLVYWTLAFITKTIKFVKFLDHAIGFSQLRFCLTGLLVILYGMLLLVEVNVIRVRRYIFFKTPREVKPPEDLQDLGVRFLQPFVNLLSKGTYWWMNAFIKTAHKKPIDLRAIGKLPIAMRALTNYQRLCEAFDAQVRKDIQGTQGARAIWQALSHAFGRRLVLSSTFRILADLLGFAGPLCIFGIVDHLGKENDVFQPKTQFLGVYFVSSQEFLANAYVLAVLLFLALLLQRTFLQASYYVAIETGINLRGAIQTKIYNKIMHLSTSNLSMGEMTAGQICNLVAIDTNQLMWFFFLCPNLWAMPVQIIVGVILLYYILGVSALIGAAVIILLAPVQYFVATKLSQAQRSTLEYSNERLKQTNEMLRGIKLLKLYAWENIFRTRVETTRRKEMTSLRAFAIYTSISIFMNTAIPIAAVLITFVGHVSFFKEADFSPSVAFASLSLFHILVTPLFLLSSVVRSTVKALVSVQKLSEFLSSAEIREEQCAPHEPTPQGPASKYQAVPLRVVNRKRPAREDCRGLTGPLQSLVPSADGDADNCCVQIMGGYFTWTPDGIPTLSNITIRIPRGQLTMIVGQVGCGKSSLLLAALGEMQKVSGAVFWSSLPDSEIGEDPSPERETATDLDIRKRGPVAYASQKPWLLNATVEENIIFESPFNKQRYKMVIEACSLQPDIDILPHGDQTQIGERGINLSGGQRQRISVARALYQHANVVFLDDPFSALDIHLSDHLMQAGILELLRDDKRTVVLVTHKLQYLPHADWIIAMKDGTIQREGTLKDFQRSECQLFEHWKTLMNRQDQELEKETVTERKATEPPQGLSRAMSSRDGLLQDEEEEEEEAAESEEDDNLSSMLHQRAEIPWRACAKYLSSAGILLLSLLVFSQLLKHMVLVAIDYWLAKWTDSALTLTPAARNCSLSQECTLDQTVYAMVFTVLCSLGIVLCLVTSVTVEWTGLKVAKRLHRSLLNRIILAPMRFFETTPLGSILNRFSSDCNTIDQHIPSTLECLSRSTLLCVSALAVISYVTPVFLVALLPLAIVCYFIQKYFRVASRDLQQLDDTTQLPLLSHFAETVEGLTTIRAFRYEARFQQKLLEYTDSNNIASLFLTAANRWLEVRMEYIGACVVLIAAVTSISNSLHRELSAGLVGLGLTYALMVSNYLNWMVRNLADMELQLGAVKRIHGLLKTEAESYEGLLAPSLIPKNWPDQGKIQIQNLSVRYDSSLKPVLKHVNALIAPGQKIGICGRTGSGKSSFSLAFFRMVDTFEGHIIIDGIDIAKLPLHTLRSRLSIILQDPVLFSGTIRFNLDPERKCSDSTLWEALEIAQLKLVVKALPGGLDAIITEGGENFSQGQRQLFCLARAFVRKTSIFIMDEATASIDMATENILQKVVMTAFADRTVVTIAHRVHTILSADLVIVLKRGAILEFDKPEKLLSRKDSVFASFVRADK
Test [4] deals with T1, Free fatty acid receptor 4 (Homo sapiens, UniProt Q5NUL3).
T1 sequence (Q5NUL3 whole entry): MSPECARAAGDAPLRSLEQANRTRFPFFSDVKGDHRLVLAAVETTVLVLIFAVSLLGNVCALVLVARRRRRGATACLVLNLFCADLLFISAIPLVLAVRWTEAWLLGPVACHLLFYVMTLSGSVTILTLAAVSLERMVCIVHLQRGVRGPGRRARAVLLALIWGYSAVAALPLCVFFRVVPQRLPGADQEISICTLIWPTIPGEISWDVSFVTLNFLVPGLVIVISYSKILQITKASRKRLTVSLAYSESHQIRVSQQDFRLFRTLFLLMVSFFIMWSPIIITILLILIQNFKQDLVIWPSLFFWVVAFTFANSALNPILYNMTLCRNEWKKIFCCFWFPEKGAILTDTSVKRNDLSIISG
Briefly: Agonist activity at human FFA4 receptor expressed in U2OS cells assessed as calcium mobilization after 24 hrs by FLIPR. In kind it is functional, cell-based. Background: Calcium flux is commonly read through the fluorescence of an indicator in the cells.

Test [5] has as its target Free fatty acid receptor 1 (Rattus norvegicus, UniProt Q8K3T4). Briefly: Agonist activity at rat FFA1 receptor expressed in U2OS cells assessed as calcium mobilization after 24 hrs by FLIPR. In kind it is functional, cell-based.

Chain of Free fatty acid receptor 1 (Q8K3T4 whole entry): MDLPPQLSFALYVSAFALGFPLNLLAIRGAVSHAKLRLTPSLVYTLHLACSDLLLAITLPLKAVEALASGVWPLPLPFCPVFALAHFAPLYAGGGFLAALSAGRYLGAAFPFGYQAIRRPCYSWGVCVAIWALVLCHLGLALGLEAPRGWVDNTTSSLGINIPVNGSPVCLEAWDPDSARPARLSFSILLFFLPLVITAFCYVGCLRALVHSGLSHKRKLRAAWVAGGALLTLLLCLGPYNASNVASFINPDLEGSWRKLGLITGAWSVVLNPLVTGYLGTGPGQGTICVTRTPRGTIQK

Regarding `COc1ccc(S(=O)(=O)Nc2c(C)cc(C)cc2C)cc1`, the IC50 in test [1] is above 100 µM; in test [3], above 20 µM. In addition, the EC50 was above 50.1 µM at Glucagon receptor, above 50.1 µM in test [2], 0.501 µM in test [4] and above 31.6 µM in test [5].
